Earlier results in patent US6689302B2, “Method of making an antimicrobial tympanostomy tube” (Medtronic Xomed, Inc., priority 1993, dated 2004).

Tested on: postoperative otorrhea
Conditions: Baker and Chole trial; ophthalmic solution used as otic drops

Gentamicin
incidence of infection: significantly reduced
